# Patent US20250339569A1, “CARBONIC ANHYDRASE IX LIGANDS” (priority 2021, published 2025)
# Where two headings read alike, the source gives them in different places.
# Key:
# [1] = Biodistribution study (SPECT/CT) in HT-29 tumor-bearing mice; format: in vivo, NMRI nude mice; settings: female, NMRI nude, mouse, in vivo, iv, total radioactivity, HT-29, In-111-labeled, Mean ± SEM
# Method: The effect on tumor uptake of prior injection of gelofusine for kidney protection was investigated in mice bearing the SK-RC-52 tumor. Biodistribution was evaluated using in vivo SPECT/CT imaging. Prior to the in vivo study the compounds (ligands) were initially radiolabeled with In-111 and the stability of radiolabeled compounds was evaluated in buffer at three different timepoints.
# The study was performed in female NMRI nude mice (approximately 6 weeks of age) from Janvier Labs, France, housed up to 5 mice per cage.
# The column was washed with 2 mL water, and then the final product was eluted from the column in EtOH solution (50%) • The sample was formulated in PBS to the final concentration of 150 MBq/mL and 5 nmol/mL.
# SK-RC-52 cells were cultured in RPMI 1640 with GlutaMax-I (Thermo Fisher Scientific #61870044) supplemented with 10% fetal bovine serum+1% penicillin/streptomycin, harvested, washed twice in RPMI 1640 and resuspended at 2×10^7 cells/mL in RPMI 1640. HT-29 cells were cultured in McCoy's 5a Medium Modified (Sigma #M9309). For inoculation of HT-29 cells, cells were harvested, washed twice in PBS and resuspended at 5×10^7 cells/mL in PBS. Cells were kept on ice until inoculation.
# Animals were anaesthetized (isoflurane, 2-4% in ambient air supplemented with 100% 02) prior to tumor inoculation. The tumor cells (100 μL suspension of either SK-RC-52 cells (2×10^6 cells/animal) or HT-29 cells (5×10^6 cells/animal)) were subcutaneously inoculated in the right flank using a 1-mL syringe equipped with a 27 G needle. Tumor growth and animal weight were measured twice per week. Tumor size was measured by caliper and the volume was estimated using the following formula: 0.52×(length×width^2). When tumor sizes reached 150-250 mm^3, animals were randomized into groups (n=3) of similar average tumor volume and body weight.
# Animals were injected intravenously with In-111-labeled compounds (single bolus, 22.3-31.2 MBq, ˜1 nmol ligand, injection volume: 100 μL) in the lateral tail vein using a 29 G syringe.
# CT was performed with helical scan, 300 ms exposure, reconstruction resolution of 250 μm. SPECT was performed with multi-pinhole scan and a 30 s frame time. For the quantification of the radioactivity uptake, regions of interests (ROIs) were drawn over the tumor, kidney, liver, and heart (estimate of blood) identified on the images. Uptake was expressed as percent of injected dose per gram tissue (% ID/g).
# [2] = Dose range finding study by intravenous route with toxicokinetics; format: in vivo, beagle dogs; settings: for Dose-normalized AUClast: AUClast divided by dose in μg/kg; for clearance / half-life / Vd / AUC(0-t) / level at […]: male, beagle, iv, mean n = 2; for clearance / half-life / Vd: dog, plasma; for Vd: read-out: Vss; for AUC(0-t) / level at […]: dog plasma; for level at […]: read-out: C15 min
# Method: The following parameters and endpoints were evaluated: mortality, clinical observations, body weights, food consumption, local reactions, clinical pathology parameters (hematology, coagulation, and clinical chemistry), organ weights, and macroscopic examinations. Both animals were sampled for toxicokinetics (TK) on each dosing occasion (i.e., on day 1, day 5, day 9 and day 13) at: pre-dose, 15 min, 30 min, 1 h, 6 h and 24 h. Blood samples were collected in K2EDTA tubes. Plasma was prepared by centrifugation (2500 g for 10 minutes, +4° C.) within 1 hour after collection, and then frozen within 1 hour after centrifugation and stored at −80° C. […] Chromatographic separation was achieved using a Waters Acquity UPLC system with a Waters Acquity HSS T3 C18 2.1×50 mm, 1.8 μm column. Chromatography was conducted at 50° C. at a flow rate of 0.7 mL/min using a mobile phase consisting of A: acetonitrile, and B: 1% formic acid in water, according to the following linear gradient: 0 to 0.1 min: 90% B; 0.1 to 4.1 min: from 90% B to 74% B; 4.1 to 4.2 min: from 74% B to 5% B; 4.2 to 4.6 min: 5% B; 4.6 to 4.7 min: from 5% B to 90% B; 4.7-5.1 min; 90% B. Detection was performed using a Sciex API6600 TOF mass spectrometer. Toxicokinetic parameters were estimated from concentration-time data using Phoenix pharmacokinetic software (version 6.4, Certara L. P.). A non-compartmental approach consistent with the bolus intravenous injection was used for parameter estimation.
smiles,measurement,setting,value
"CC(C)C[C@@H]1NC(=O)[C@H](Cc2cccc(NC(=O)CCCS(N)(=O)=O)c2)NC(=O)[C@H](CC(=O)O)NC(=O)[C@H]2CCCN2C(=O)[C@H](CCC(=O)O)NC(=O)[C@@H](NC(=O)[C@H](CCC(N)=O)NC(=O)CN2CCN(C(=O)CN3CCN(CC(=O)O)CCN(CC(=O)O)CCN(CC(=O)O)CC3)CC2)CSCc2cccc(c2)CSC[C@@H](C(N)=O)NC(=O)[C@H](CO)NC(=O)[C@H](Cc2c[nH]c3ccccc23)NC(=O)[C@H]([C@@H](C)O)NC1=O [DPI-4452, DOTA-PPAc-Gln-[Cys(3MeBn)-Glu-pro-Asp-Af3(Cpsu)-Leu-Thr-Trp-Ser-Cys]-NH2]",tissue uptake at 4 h,[1]; read-out: Blood uptake at 4 h p.i.,0.04 ± 0.002 %ID/g
same,tissue uptake at 24 h,[1]; read-out: Kidney uptake at 24 h p.i.,1.41 ± 0.11 %ID/g
same,tissue uptake at 4 h,[1]; read-out: Liver uptake at 4 h p.i.,0.12 ± 0.005 %ID/g
same,Dose-normalized AUClast,"[2]; Day 1, […] i.v.",1.36
same,Dose-normalized AUClast,"[2]; Day 5, 0.08 mg/kg i.v.",1.46
same,Dose-normalized AUClast,"[2]; Day 9, 0.4 mg/kg i.v.",2.31
same,Dose-normalized AUClast,"[2]; Day 13, 0.8 mg/kg i.v.",4.42
same,dose proportionality of exposure,"[2]; male beagle dogs, 25 to 800 μg/kg i.v.",exposure increased more than dose-proportionally
same,tolerability,"[2]; male beagle dogs, i.v. bolus, ascending 25, 80, 400, 800 μg/kg/day",well tolerated systemically and locally
same,clearance,"[2]; Day 1, 0.025 mg/kg i.v.",11.7 mL/min/kg
same,half-life,"[2]; Day 1, 0.025 mg/kg i.v.",15 min
same,Vd,"[2]; Day 1, 0.025 mg/kg i.v.",0.22 L/kg
same,clearance,"[2]; Day 9, 0.4 mg/kg i.v.",6.83 mL/min/kg
same,half-life,"[2]; Day 9, 0.4 mg/kg i.v.",29.4 min
same,Vd,"[2]; Day 9, 0.4 mg/kg i.v.",0.24 L/kg
same,clearance,"[2]; Day 13, 0.8 mg/kg i.v.",3.52 mL/min/kg
same,half-life,"[2]; Day 13, 0.8 mg/kg i.v.",52.8 min
same,Vd,"[2]; Day 13, 0.8 mg/kg i.v.",0.32 L/kg
same,AUC(0-t),"[2]; Day 1, 0.025 mg/kg i.v.",34 ng·h/mL
same,level at […],"[2]; Day 1, 0.025 mg/kg i.v.",46.8 ng/mL
same,AUC(0-t),"[2]; Day 5, 0.08 mg/kg i.v.",117 ng·h/mL
same,level at […],"[2]; Day 5, 0.08 mg/kg i.v.",156 ng/mL
same,AUC(0-t),"[2]; Day 9, 0.4 mg/kg i.v.",926 ng·h/mL
same,level at […],"[2]; Day 9, 0.4 mg/kg i.v.",880 ng/mL
same,AUC(0-t),"[2]; Day 13, 0.8 mg/kg i.v.",3530 ng·h/mL
same,level at […],"[2]; Day 13, 0.8 mg/kg i.v.",2000 ng/mL
